Read-outs that look alike come from different tables or passages of the source.
How the values were obtained:
[1] = test system: acute cerebral ischemia (MCAO) in rats; assay type: in vivo, Male Wistar rats; conditions: 3 mg/kg, 5 doses from 2 h after surgery, 48 h
[2] = test system: acute cerebral ischemia (MCAO) in rats; set-up: species or system Male Wistar rats; conditions: rat, in vivo, 3 mg/kg
[3] = test system: lactic acid in brain tissues; experiment: Level of lactic acid in brain tissues 48 hours after permanent MCAO; assay type: in vivo, Male Wistar rats; conditions: rat brain tissues, 3 mg/kg
[4] = test system: superoxide dismutase (SOD); assay type: in vivo, Male Wistar rats; conditions: rat brain tissues, 3 mg/kg, 48 hours after permanent MCAO

CC1=NN(c2ccccc2)C(=O)C1 [Edaravone, edaravone]
Scores of MCAO neurological symptoms ([1]; model group 5.3 ± 2.8): 4.3 ± 1.6 | Scores of MCAO neurological symptoms ([1]; model group 5.3 ± 2.8, listed as edaravone): no significant difference | Volume (area) of cerebral infarction [2]: decreased significantly | Level of Lactic acid ([3]; model 0.98 ± 0.09, sham 0.37 ± 0.01): 0.64 ± 0.08 mmol/g protein | Level of Lactic acid ([3]; model 0.98 ± 0.09, sham 0.37 ± 0.01, listed as edaravone): 0.64±0.08 mmol/g protein | SOD Activity [4]: 234.66 ± 15.85 U/mg pro | SOD Activity ([4]; listed as edaravone): significantly increased
